These results are taken from patent US8754079B2, “Cycloalkyl containing thienopyrimidines for pharmaceutical compositions” (Boehringer Ingelheim International GmbH, priority 2010, dated 2014).

In experiment [1] the test system is Mnk2 (Mnk2a or Mnk2b) or Mnk1. The following applies: addition to cell culture cells transfected with Mnk2 (Mnk2a or Mnk2b) or Mnk1; cited from earlier work.
Another experiment has as its target T1, MNK2 (Homo sapiens, UniProt Q9HBH9).
T1 construct: the open reading frames of human Mnk1 and Mnk2a were amplified from cDNA; made in house; host or cells: E. coli BL21
The experiment in a line: Mnk2a in vitro kinase assay (indirect fluorescence polarization). It is filed as biochemical. The note with it: pre-activated GST-Mnk2a 2.5 nM, 20 μM ATP, 30 μM substrate peptide. The procedure, abridged:
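Human GST-Mnk2a was expressed in E. coli and activated in vitro with 150 nM pre-activated ERK2 and 50 μM ATP in HEPES pH 7.4/MgCl2 buffer (45 min, 30 °C). Activity on an eIF4E Ser209-derived 12mer peptide was read by competitive fluorescence polarization with a phospho-specific antibody.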

pIC50: −log10 of the molar value.

T1 sequence (Q9HBH9 whole entry): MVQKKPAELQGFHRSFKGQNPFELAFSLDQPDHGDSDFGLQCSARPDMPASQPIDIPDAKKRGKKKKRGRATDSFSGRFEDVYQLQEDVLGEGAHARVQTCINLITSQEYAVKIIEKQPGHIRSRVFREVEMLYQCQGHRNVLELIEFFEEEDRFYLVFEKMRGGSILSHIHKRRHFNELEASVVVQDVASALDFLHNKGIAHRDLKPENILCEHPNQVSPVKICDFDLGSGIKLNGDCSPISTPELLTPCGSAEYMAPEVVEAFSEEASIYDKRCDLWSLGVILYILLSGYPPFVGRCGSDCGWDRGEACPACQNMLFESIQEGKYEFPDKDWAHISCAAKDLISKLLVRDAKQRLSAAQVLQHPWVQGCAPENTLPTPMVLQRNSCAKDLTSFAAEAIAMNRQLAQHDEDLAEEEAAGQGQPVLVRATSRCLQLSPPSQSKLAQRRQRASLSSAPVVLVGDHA

Consider `Nc1ncnc2n[nH]c(Nc3ccc(F)cc3)c12` [CGP57380], for which, in experiment [1], the “reduction of phosphorylated eIF4E” value was “strong reduction”. In the case of `Cc1c(C(=O)O)sc2ncnc(Nc3cccnc3O[C@H]3CC[C@H](N)CC3)c12` [Example 282, 4-[2-(4-Amino-cyclohexyloxy)-pyridin-3-ylamino]-5-methyl-thieno[2,3-d]pyrimidine-6-carboxylic acid], on MNK2, the pIC50 is 7.96. The same measure, in the same setting: as for `Cc1c(C(N)=O)sc2ncnc(Nc3cccnc3O[C@H]3CC[C@H](N)CC3)c12` [Example 283, 4-[2-(4-Amino-cyclohexyloxy)-pyridin-3-ylamino]-5-methyl-thieno[2,3-d]pyrimidine-6-carboxylic acid amide], the figure is 8.22.

For the compound `CCNC(=O)c1sc2ncnc(Nc3cccnc3O[C@H]3CC[C@H](N)CC3)c2c1C` [Example 284], the negative-log IC50 (pIC50) against MNK2 was 8.00. Take `CNC(=O)c1sc2ncnc(Nc3cccnc3O[C@H]3CC[C@H](N)CC3)c2c1C` [Example 285]: the pIC50 against MNK2 was 8.05. In the case of `CCCCNC(=O)c1sc2ncnc(Nc3cccnc3O[C@H]3CC[C@H](N)CC3)c2c1C` [Example 286], at MNK2, the negative-log IC50 (pIC50) was 8.40.

With `Cc1c(C(=O)NC(C)C)sc2ncnc(Nc3cccnc3O[C@H]3CC[C@H](N)CC3)c12` [Example 287], on MNK2, the negative logarithm of the IC50 (pIC50) was 8.30. On the same count and under the same terms, the figure for `Cc1c(C(=O)NCCO)sc2ncnc(Nc3cccnc3O[C@H]3CC[C@H](N)CC3)c12` [Example 288] is 7.72. On to `CCCNC(=O)c1sc2ncnc(Nc3cccnc3O[C@H]3CC[C@H](N)CC3)c2c1C` [Example 289, 4-[2-(4-Amino-cyclohexyloxy)-pyridin-3-ylamino]-5-methyl-thieno[2,3-d]pyrimidine-6-carboxylic acid propyl amide], for which the negative logarithm of the IC50 (pIC50) against MNK2 is 8.70. Turning to `Cc1c(C(=O)O)sc2ncnc(Nc3ccc(F)cc3O[C@H]3C[C@@H]4OCO[C@@H]4C3)c12` [Example 290, 4-[4-Fluoro-2-(tetrahydro-cyclopenta[1,3]dioxol-5-yloxy)phenylamino]-5-methyl-thieno[2,3-d]pyrimidine-6-carboxylic acid], the pIC50 against MNK2 was 8.10. As to `Cc1c(C(=O)NCCCN2CCCC2)sc2ncnc(Nc3ccc(F)cc3O[C@H]3C[C@@H]4OCO[C@@H]4C3)c12` [Example 291, 4-[4-Fluoro-2-(tetrahydro-cyclopenta[1,3]dioxol-5-yloxy)phenylamino]-5-methyl-thieno[2,3-d]pyrimidine-6-carboxylic acid (3-pyrrolidin-1-yl-propyl)-amide], the negative logarithm of the IC50 (pIC50) at MNK2 is 7.72. Same read-out and setting: as for `Cc1c(C(=O)NC2CCN(C)CC2)sc2ncnc(Nc3ccc(F)cc3O[C@H]3C[C@@H]4OCO[C@@H]4C3)c12` [Example 292], the figure is 7.34. Same read-out and setting: the figure for `Cc1c(C(N)=O)sc2ncnc(Nc3ccc(F)cc3O[C@H]3CCC[C@@H]3NC(=O)C3CC3)c12` [Example 293, (1S,2S) 4-{2-[2-(Cyclopropanecarbonyl-amino)-cyclopentyloxy]-4-fluoro-phenylamino}-5-methyl thieno[2,3-d]pyrimidine-6-carboxylic acid amide] is 6.42. The same measure, in the same setting: the figure for `COC(=O)N[C@H]1CCC[C@@H]1Oc1cc(F)ccc1Nc1ncnc2sc(C(N)=O)c(C)c12` [Example 294] is 6.74; for `CC(=O)N[C@H]1CCC[C@@H]1Oc1cc(F)ccc1Nc1ncnc2sc(C(N)=O)c(C)c12` [Example 295, (1S,2S) 4-{2-[2-(Acetyl-amino)-cyclopentyloxy]-4-fluoro-phenylamino}-5-methyl thieno[2,3-d]pyrimidine-6-carboxylic acid amide] it is 7.02.
